The results in this text go back to patent publication EP1900728A1 (Genecare Research Institute Co., Ltd, priority 2005, dated 2006).

This assay concerns the target T1, IκBα ubiquitinating enzyme (SCF complex: ROC1, Cullin1, Skp1, His-TrCP1; with E1, UbcH5b) (Homo sapiens, UniProt P62877+P63208+Q13616+Q9Y297).
T1 construct: His (polyhistidine); made in house; host or cells: insect cells (baculovirus) for the SCF complex and His-E1; E. coli for His-UBCH5b
The assay is described as follows: Measurement of ubiquitinating enzyme activity (IκBα ubiquitination, time-resolved fluorescence with Eu(K)-labeled ubiquitin and XL665-labeled anti-GST antibody). It is filed as biochemical. To be noted: enzyme activity inhibition test, method (1), Table 5; read-out: EVALUATION
As for the experimental part: Method 1: Measurement of ubiquitinating enzyme activity
A recombinant vector His-UBCH5b containing a polyhistidine tag (His) and UBCH5b was prepared. E. coli was transformed with the vector, the protein was expressed, and affinity purification was carried out using Ni-NTA agarose (Qiagen). Four types of recombinant baculoviruses (ROC1, Cullin1, Skp1, and His-TrCP1) were prepared for the SCF complex protein, insect cells were infected in quadruplicate for expression, and affinity purification was carried out using Ni-NTA agarose. Recombinant baculoviruses His-IKKβ, His-E1 were prepared. The insect cells were infected with each of those for expression, and affinity purification was carried out using Ni-NTA agarose. A recombinant vector GST-IκBα was prepared by fusing glutathione-S-transferase tag (GST) and IκBα, E. coli was transformed with the vector for the protein expression, and affinity purification was carried out using glutathione sepharose (Amersham Biosciences). Genetic transformants were prepared by PCR amplification followed by recombination, all of which were based on published human-derived sequences.
Phosphorylation reaction of IκBα was performed by incubating the above-mentioned assay buffer (50 mM Tris-HCl (pH7.4), 2 mM ATP, 5 mM MgCl2, 0.5 mM DTT, 0.1% BSA) containing IκBα and IKKβ at room temperature for 1 hour. Ubiquitination reactions were carried out as follows. Compound samples at various concentrations, ubiquitin, Eu (K)-labeled ubiquitin, E1, UbcH5b, and SCF complex were added to phosphorylated IκBα, and then this was incubated at room temperature for 30 minutes. The reaction was terminated by adding EDTA, the above-mentioned revelation buffer (100 mM phosphate buffer (pH7.0), 0.5 M KF, 0.1% BSA) containing XL665-labeled anti-GST antibody was added and this was left to stand at room temperature for 2 hours. Measurements were made using ARVO-HTS (Perkin Elmer). The ratio of fluorescence intensities at 620 nm and 665 nm (Em 665 nm/Em 620 nm x 10,000) with excitation light at 337 nm was measured.
The ubiquitination level without the addition of a compound sample was used as the control value, and the level in the absence of SCF complex was used as the blank value for the assays. Inhibitory activities of the compounds were indicated as % inhibition = 100 - (value with a compound sample added - blank value) / (control value - blank value) x 100. IC50 was indicated as the concentration of the compound showing 50% inhibition. Eu (K)-labeled ubiquitin, XL665-labeled anti-GST antibody, and XL665-labeled anti-His antibody were purchased from CIS bio international. Costar solid black plates (96 wells) were used for the assays.

T1 sequence (Q9Y297 whole entry): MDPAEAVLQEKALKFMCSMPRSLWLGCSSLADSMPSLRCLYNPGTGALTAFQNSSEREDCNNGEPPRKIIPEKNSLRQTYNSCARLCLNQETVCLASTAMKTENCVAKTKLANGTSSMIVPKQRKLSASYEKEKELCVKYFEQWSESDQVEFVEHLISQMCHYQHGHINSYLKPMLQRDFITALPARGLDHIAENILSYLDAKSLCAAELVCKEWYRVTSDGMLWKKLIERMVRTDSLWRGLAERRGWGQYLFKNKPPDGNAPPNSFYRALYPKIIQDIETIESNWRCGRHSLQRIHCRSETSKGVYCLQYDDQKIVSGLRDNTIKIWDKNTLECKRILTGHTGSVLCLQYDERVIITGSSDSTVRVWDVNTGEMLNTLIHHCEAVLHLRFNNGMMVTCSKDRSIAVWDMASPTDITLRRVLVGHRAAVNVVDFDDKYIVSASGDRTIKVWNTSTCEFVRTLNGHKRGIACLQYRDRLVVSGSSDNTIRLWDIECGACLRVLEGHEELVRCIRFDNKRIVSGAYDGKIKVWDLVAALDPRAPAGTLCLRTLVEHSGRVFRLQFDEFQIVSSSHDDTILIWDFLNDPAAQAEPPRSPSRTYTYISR
T1 sequence (Q13616 whole entry): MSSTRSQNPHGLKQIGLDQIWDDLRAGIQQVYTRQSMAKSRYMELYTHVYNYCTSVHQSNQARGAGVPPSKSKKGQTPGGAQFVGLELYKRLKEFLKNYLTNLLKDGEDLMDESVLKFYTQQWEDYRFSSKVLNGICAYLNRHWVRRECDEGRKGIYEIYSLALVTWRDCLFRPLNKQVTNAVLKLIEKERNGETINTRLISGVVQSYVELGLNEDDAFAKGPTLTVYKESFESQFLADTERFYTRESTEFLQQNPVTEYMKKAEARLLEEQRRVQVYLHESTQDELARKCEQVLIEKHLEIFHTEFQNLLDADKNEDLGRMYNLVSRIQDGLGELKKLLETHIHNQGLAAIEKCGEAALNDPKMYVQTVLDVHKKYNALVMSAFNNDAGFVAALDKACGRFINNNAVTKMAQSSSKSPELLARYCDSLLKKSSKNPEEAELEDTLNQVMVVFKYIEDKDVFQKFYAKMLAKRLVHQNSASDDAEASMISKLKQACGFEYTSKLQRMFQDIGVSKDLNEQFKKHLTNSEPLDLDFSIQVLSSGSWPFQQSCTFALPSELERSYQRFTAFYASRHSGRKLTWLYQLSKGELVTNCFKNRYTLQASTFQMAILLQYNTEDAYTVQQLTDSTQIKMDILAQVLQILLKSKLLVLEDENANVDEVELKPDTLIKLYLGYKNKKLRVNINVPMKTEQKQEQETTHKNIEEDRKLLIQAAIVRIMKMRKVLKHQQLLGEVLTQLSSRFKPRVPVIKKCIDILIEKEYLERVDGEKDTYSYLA
T1 sequence (P63208 whole entry): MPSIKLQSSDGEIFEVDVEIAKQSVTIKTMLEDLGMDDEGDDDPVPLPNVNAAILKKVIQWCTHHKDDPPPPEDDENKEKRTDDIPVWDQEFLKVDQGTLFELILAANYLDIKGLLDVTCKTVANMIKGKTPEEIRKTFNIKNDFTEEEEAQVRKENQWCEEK
T1 sequence (P62877 whole entry): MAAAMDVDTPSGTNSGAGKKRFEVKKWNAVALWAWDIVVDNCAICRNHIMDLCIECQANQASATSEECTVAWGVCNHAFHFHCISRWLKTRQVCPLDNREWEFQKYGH

With `COCC1=NN(c2cccc(C(=O)O)c2)C(=O)/C1=C\c1ccc(N2CCCC2)cc1` [Compound 471], the IC50 was in the range of 10 to 20 µM. For `COc1ccc(C2=NN(c3ccc(C(=O)O)cc3)C(=O)C2=Cc2ccc(-n3cncn3)cc2)cc1OC` [Compound 343] the value was under 40 µM.

For the molecule `CC1=NN(c2cccc(S(N)(=O)=O)c2)C(=O)/C1=C\c1ccc(N2CCNCC2)cc1` [Compound 184], the IC50 fell in the range of 10 to 20 µM. In the case of `O=C(O)c1ccc(N2N=C(c3ccncc3)C(=Cc3ccc4c(c3)OCCO4)C2=O)cc1` [Compound 288] it was 10 to 20 µM; in that of `COc1ccc(C2=NN(c3ccc(C(=O)O)cc3)C(=O)C2=Cc2ccc(N3CCN(C)CC3)cc2)cc1OC` [Compound 285], 10 to 20 µM.

Take `CC1=NN(c2ccc(S(N)(=O)=O)cc2)C(=O)C1=Cc1ccc(N2CCNCC2)cc1` [Compound 183]: the IC50 was in the range of 10 to 20 µM.

For `CC1=NN(c2ccc(S(N)(=O)=O)cc2)C(=O)C1=Cc1cc2ccccc2n1C` [Compound 142], the IC50 was under 40 µM.

In the case of `CC1=NN(c2ccccc2)C(=O)/C1=C\c1ccc(OCCCN(C)C)cc1` [Compound 217], the IC50 was under 40 µM.

In the case of `CCOC(=O)c1ccc(COc2ccc(/C=C3\C(=O)N(c4cccc(S(N)(=O)=O)c4)N=C3C)cc2OC)o1` [Compound 155], the IC50 was under 40 µM. For `CC1=NN(c2cccc(C(=O)O)c2)C(=O)/C1=C\c1ccc(N2CCN(S(C)(=O)=O)CC2)cc1` [Compound 447] the value was under 10 µM; for `COc1cc(/C=C2/C(=O)N(c3ccccc3F)N=C2C)ccc1O` [Compound 197], under 40 µM; for `CCCCC1=NN(c2ccccc2)C(=O)/C1=C\c1ccc2ccccc2c1` [Compound 51], under 40 µM. For `CC1=NN(c2ccc(C(=O)O)cc2)C(=O)C1=Cc1ccc(N2CCNCC2)cc1` [Compound 451] the value was 10 to 20 µM; for `CC1=NN(c2ccc(S(N)(=O)=O)cc2)C(=O)C1=Cc1ccc(N2CCCC2CO)cc1` (stereo not shown) [Compound 172], under 40 µM. In the case of `COc1cc(/C=C2\C(=O)N(c3ccc(S(N)(=O)=O)cc3)N=C2C)ccc1OCC1CC1` [Compound 159] it was 10 to 20 µM. Regarding `COc1cc(C=C2C(=O)N(c3ccc(C(C)(C)C)cc3)N=C2C)ccc1O` [Compound 196], the IC50 is under 10 µM. For `CN1CCN(c2ccc(/C=C3\C(=O)N(c4ccccc4)N=C3C3CC3)cc2)CC1` [Compound 78] the value was 10 to 20 µM; for `O=C(O)c1ccc(N2N=C(Cc3ccccc3)/C(=C/c3ccc4ccccc4c3)C2=O)cc1` [Compound 264], 10 to 20 µM.

For the molecule `COc1cc(/C=C2\C(=O)N(c3ccc(S(N)(=O)=O)cc3)N=C2C)ccc1OCc1c(C)noc1C` [Compound 158], the IC50 was under 40 µM. In the case of `COCC1=NN(c2ccccc2)C(=O)/C1=C\c1ccc(N2CCN(C(=O)OC)CC2)cc1` [Compound 5] it was under 40 µM. For `O=C(O)c1ccc(N2N=C(c3cccnc3)/C(=C/c3ccc(N4CCCC4)cc3)C2=O)cc1` [Compound 309] the value was under 40 µM.

As for `O=C1/C(=C\c2ccc(-n3cncn3)cc2)C(Cc2ccccc2)=NN1c1ccccc1` [Compound 31], the IC50 was under 40 µM. Regarding `COc1cc(/C=C2\C(=O)N(c3ccccc3)N=C2Cc2ccccc2)ccc1O` [Compound 22], the IC50 lay within 10 to 20 µM.

For the molecule `CC1=NN(c2cccc(S(N)(=O)=O)c2)C(=O)/C1=C\c1ccc(N2CCC(O)C2)cc1` (stereo not shown) [Compound 178], the IC50 was under 40 µM. In the case of `CC1=NN(c2cccc(C(=O)O)c2)C(=O)/C1=C\c1cccc2cc[nH]c12` [Compound 356] it was under 10 µM. In the case of `CC1=NN(c2ccc(C(=O)N3CCOCC3)cc2)C(=O)/C1=C\c1ccc2[nH]ccc2c1` [Compound 357] it was under 10 µM.

On to `COc1cc(/C=C2/C(=O)N(c3cccc(N)c3)N=C2C)ccc1O` [Compound 198], for which the IC50 was under 40 µM. In the case of `CC1=NN(c2cccc(C(=O)NC[C@H](C)O)c2)C(=O)/C1=C\c1ccc2c(c1)OCCO2` [Compound 401] it was 10 to 20 µM; in that of `O=C(O)c1ccc(N2N=C(Cc3ccccc3)/C(=C/c3ccc(-n4cccn4)cc3)C2=O)cc1` [Compound 275], 10 to 20 µM; in that of `COc1cc(/C=C2\C(=O)N(c3ccc(C(=O)O)cc3)N=C2c2ccccn2)ccc1OCc1ccccc1` [Compound 289], 10 to 20 µM. For the molecule `CC1=NN(c2cccc(S(N)(=O)=O)c2)C(=O)C1=Cc1cccc2[nH]ccc12` [Compound 137], the IC50 fell in the range of 10 to 20 µM. Turning to `COCCC1=NN(c2cccc(C(=O)O)c2)C(=O)/C1=C\c1ccc(-c2ccccc2F)o1` [Compound 526], the IC50 was under 40 µM. In the case of `O=C1/C(=C\c2ccc3c(c2)OCCO3)C(c2cccnc2)=NN1c1ccccc1` [Compound 66] it was under 40 µM; in that of `CC1=NN(c2ccc(S(N)(=O)=O)cc2)C(=O)/C1=C\c1ccc(OS(=O)(=O)c2ccc(C(C)(C)C)cc2)cc1` [Compound 221], 10 to 20 µM; in that of `COc1ccc(C2=NN(c3ccccc3)C(=O)/C2=C\c2ccc(CO)o2)cc1` [Compound 90], under 40 µM.

For `O=C(O)c1cccc(N2N=C(c3ccoc3)/C(=C/c3ccc(CO)o3)C2=O)c1` [Compound 488], the IC50 fell in the range of 10 to 20 µM. For `CC1=NN(c2ccc(C(=O)N3CCCC3CO)cc2)C(=O)/C1=C\c1ccc2[nH]ccc2c1` (stereo not shown) [Compound 362] the value was under 10 µM; for `CCOC(=O)CN1CCN(c2ccc(/C=C3\C(=O)N(c4cccc(C(=O)O)c4)N=C3C)cc2)CC1` [Compound 446], under 40 µM; for `COc1ccc(C2=NN(c3ccccc3)C(=O)/C2=C\c2ccc3ccccc3c2)cc1OC` [Compound 97], 10 to 20 µM. For `O=C1/C(=C\c2ccc(CO)o2)C(c2ccccn2)=NN1c1ccccc1` [Compound 48] the value was under 40 µM; for `COc1cc(/C=C2\C(=O)N(c3ccc(C(=O)O)cc3)N=C2C)ccc1OCC1CCCCC1` [Compound 406], 10 to 20 µM; for `CC1=NN(c2cccc(C(=O)N3CCCCC3)c2)C(=O)/C1=C\c1ccc2[nH]ccc2c1` [Compound 369], under 10 µM. For `CC1=NN(c2ccc(C(=O)O)cc2)C(=O)/C1=C\c1cc2ccccc2n1C` [Compound 360] the value was under 10 µM; for `COc1cc(/C=C2\C(=O)N(c3cccc(S(N)(=O)=O)c3)N=C2C)ccc1OCC1CC1` [Compound 160], under 40 µM.

Turning to `CC1=NN(c2ccc(C(=O)N3CCN(c4ccccc4)CC3)cc2)C(=O)C1=Cc1ccc2[nH]ccc2c1` [Compound 353], the IC50 was under 10 µM. In the case of `NS(=O)(=O)c1ccc(N2N=C(C3CC3)/C(=C/c3ccc(-n4cncn4)cc3)C2=O)cc1` [Compound 111] it was under 40 µM.

`CC1=NN(c2cccc(S(N)(=O)=O)c2)C(=O)/C1=C\c1ccc2occc2c1` [Compound 143]: the IC50 is under 40 µM.

On to `COc1cc(/C=C2\C(=O)N(c3ccccc3)N=C2c2ccncc2)ccc1O` [Compound 40], for which the IC50 was under 40 µM. In the case of `COc1cc(/C=C2\C(=O)N(C)N=C2C)ccc1O` [Compound 132] it was under 40 µM. For `O=C1/C(=C\c2ccc(-n3cccn3)cc2)C(Cc2ccccc2)=NN1c1ccccc1` [Compound 30], the IC50 lay within 10 to 20 µM. For `CC1=NN(c2ccc(C(=O)O)cc2)C(=O)/C1=C\c1cccc2nccnc12` [Compound 331] the value was 10 to 20 µM. For `O=C1/C(=C\c2ccc3ccccc3c2)C(Cc2ccccc2)=NN1c1ccccc1` [Compound 23] the value was under 40 µM.
